# Measured values taken from ChEMBL document CHEMBL3868581, “Avarol derivatives as competitive AChE inhibitors, non hepatotoxic and neuroprotective agents for Alzheimer's disease” (Eur J Med Chem, 2016).
# The source made the active and inactive calls. The calls are words filed in the database; no cut-off is given here.
# Tests used:
# [1] = Neurotoxicity in human SH-SY5Y cells assessed as decrease in cell viability at 1 uM after 24 hrs by XTT assay; assay type: toxicity, cell-based
# [2] = Neurotoxicity in human SH-SY5Y cells assessed as decrease in cell viability at 25 to 50 uM after 24 hrs by XTT assay; assay type: toxicity, cell-based
# Acetylcholinesterase [3] = molecular target: T1, Acetylcholinesterase (Electrophorus electricus, UniProt O42275)
# T1 sequence (O42275 whole entry): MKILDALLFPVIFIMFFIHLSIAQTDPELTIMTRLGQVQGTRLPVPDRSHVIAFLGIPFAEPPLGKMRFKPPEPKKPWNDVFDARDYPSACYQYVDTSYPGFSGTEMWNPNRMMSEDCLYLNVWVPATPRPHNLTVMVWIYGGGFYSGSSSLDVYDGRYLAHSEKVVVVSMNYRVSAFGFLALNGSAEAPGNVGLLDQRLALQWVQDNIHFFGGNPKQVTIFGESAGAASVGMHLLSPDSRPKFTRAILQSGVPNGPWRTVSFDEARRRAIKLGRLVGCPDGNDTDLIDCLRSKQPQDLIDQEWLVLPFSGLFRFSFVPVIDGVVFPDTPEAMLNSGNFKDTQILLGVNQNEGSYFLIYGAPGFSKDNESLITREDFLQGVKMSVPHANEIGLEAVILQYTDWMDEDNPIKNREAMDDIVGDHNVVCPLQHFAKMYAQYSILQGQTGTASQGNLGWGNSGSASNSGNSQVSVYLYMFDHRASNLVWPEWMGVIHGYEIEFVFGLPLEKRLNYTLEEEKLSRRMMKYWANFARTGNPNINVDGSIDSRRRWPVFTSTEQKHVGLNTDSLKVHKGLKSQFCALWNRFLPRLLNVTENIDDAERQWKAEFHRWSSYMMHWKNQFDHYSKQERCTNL
# Description: Inhibition of Electrophorus electricus AChE using acetylthiocholine iodide as substrate incubated for 15 mins followed by substrate addition by Ellman's method
# HepG2 [4] = test: Hepatotoxicity in human HepG2 cells assessed as decrease in cell viability at 1 to 100 uM after 24 hrs by XTT assay; assay type: toxicity, cell-based; settings: hepg2, 24 h
# cells [5] = settings: Homo sapiens, SH-SY5Y, 24 h
# Description: Neuroprotective activity against okadaic acid-induced tau phosphorylation-mediated cell death in human SH-SY5Y cells assessed as increase in cell viability after 24 hrs by XTT assay
# cells [6] = settings: Homo sapiens, SH-SY5Y, 24 h; remark: listed apart in the source
# Description: Neuroprotective activity against oligomycine/rotenone-induced oxidative stress-mediated cell death in human SH-SY5Y cells assessed as increase in cell viability after 24 hrs by XTT assay
# HepG2 [7] = test: Hepatoprotective activity in human HepG2 cells at 1 to 25 uM after 24 hrs by XTT assay; assay type: functional, cell-based
# Acetylcholinesterase [8] = molecular target: T1, Acetylcholinesterase; remark: listed apart in the source
# Description: Inhibition of Electrophorus electricus AChE using acetylthiocholine iodide as substrate by Dixon plot analysis
# [9] = molecular target: Acetylcholinesterase (Electrophorus electricus) (UniProt O42275); test: Competitive inhibition of Electrophorus electricus AChE using acetylthiocholine iodide as substrate at 0.001 to 10 uM incubated for 15 mins followed by substrate addition by Lineweaver-Burk reciprocal plot analysis
# Acetylcholinesterase (Electrophorus electricus), sequence (O42275 24-633 limits assumed): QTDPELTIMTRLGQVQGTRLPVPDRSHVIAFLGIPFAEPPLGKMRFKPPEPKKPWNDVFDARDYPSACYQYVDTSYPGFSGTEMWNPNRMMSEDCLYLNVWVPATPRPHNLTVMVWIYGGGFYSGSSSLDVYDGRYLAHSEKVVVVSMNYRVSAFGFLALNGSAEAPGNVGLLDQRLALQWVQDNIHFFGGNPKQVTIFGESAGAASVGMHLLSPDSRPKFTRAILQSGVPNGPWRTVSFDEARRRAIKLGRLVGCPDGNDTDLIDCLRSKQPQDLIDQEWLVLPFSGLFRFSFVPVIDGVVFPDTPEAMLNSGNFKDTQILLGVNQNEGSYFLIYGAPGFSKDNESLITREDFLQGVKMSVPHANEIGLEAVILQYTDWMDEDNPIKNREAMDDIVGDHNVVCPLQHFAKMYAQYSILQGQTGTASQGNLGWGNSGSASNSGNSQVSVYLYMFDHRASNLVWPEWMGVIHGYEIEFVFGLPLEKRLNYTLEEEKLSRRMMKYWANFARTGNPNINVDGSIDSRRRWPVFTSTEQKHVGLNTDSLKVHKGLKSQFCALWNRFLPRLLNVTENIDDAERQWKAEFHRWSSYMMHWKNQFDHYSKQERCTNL
# Cholinesterase = Cholinesterase (Equus caballus, UniProt P81908)
# Cholinesterase, sequence (P81908 whole entry): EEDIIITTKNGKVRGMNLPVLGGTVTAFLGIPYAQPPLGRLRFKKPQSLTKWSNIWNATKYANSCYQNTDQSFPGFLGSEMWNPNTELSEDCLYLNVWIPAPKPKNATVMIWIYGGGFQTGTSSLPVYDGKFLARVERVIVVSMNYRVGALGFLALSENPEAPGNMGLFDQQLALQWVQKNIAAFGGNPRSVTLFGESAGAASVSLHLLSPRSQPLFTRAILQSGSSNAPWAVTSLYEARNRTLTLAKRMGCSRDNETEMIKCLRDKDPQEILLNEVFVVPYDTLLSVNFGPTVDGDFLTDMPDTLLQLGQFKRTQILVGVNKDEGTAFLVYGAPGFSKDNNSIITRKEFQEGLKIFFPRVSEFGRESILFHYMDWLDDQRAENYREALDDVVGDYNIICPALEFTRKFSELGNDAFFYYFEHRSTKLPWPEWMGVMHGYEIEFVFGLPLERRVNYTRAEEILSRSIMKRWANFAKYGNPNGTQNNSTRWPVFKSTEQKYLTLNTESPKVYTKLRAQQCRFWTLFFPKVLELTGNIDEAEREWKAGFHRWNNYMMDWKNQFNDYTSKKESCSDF
# Description: Inhibition of equine serum BuChE using butyrylthiocholine iodide as substrate incubated for 15 mins followed by substrate addition by Ellman's method
# SH-SY5Y [10] = test: Neuroprotective activity against okadaic acid-induced tau phosphorylation-mediated cell death in human SH-SY5Y cells assessed as increase in cell viability at 10 uM after 24 hrs by microscopic analysis; assay type: functional, cell-based
# [11] = molecular target: Cholinesterase (Equus caballus) (UniProt P81908); test: Inhibition of equine serum BuChE using butyrylthiocholine iodide as substrate at 50 uM incubated for 15 mins followed by substrate addition by Ellman's method
# Cholinesterase (Equus caballus), sequence (P81908 whole entry): as above
# SH-SY5Y [12] = test: Neuroprotective activity against oligomycine/rotenone-induced oxidative stress-mediated cell death in human SH-SY5Y cells assessed as increase in cell viability at 10 uM after 24 hrs by microscopic analysis; assay type: functional, cell-based
# cells [13] = settings: Rattus norvegicus, Sprague-Dawley, Cortical neurone, 3 h
# Description: Neuroprotective activity against NMDA-induced excitotoxicity in Sprague-Dawley rat primary cortical neurons assessed as increase in cell viability after 3 hrs by MTT assay
# HepG2 [14] = test: Hepatotoxicity in human HepG2 cells assessed as decrease in cell viability at 100 uM after 24 hrs by XTT assay; assay type: toxicity, cell-based; settings: hepg2, 24 h
smiles,measurement,setting,value
CC1=CCC[C@H]2[C@](C)(Cc3cc(O)ccc3O)[C@@H](C)CC[C@]12C [AVAROL],Activity,[1],Non-Toxic
same,Activity,[2],Non-Toxic
same,IC50,Acetylcholinesterase [3],286 µM
CC(C)=CCC/C(C)=C/CC/C(C)=C/CC/C(C)=C/Cc1cc(O)cc(Sc2ccccc2C(=O)O)c1O,Activity,HepG2 [4],Non-Toxic
same,Activity,[1],Non-Toxic
same,EC50,cells [5],0.15 µM
same,EC50,cells [6],0.52 µM
same,Activity,HepG2 [7],Active
same,Activity,[2],Non-Toxic
same,Ki,Acetylcholinesterase [8],0.00059 nM
same,inhibition,[9],Active
same,IC50,Cholinesterase,19.7 µM
same,Activity,SH-SY5Y [10],Active
same,Imax,[11],60.5%
same,IC50,Acetylcholinesterase [3],6.77 µM
same,Activity,SH-SY5Y [12],Active
CC(C)=CCC/C(C)=C/Cc1cc(O)cc(Sc2ccccc2C(=O)O)c1O,Activity,HepG2 [4],Non-Toxic
same,Activity,[1],Non-Toxic
same,EC50,cells [5],0.22 µM
same,EC50,cells [6],8.17 µM
same,Activity,[2],Non-Toxic
same,Imax,[11],17.8%
same,IC50,Acetylcholinesterase [3],13.1 µM
COc1ccc2c3c1O[C@H]1C[C@@H](O)C=C[C@@]31CCN(C)C2 [GALANTAMINE],Activity,[1],Non-Toxic
same,EC50,cells [5],1.94 µM
same,EC50,cells [6],2.81 µM
same,Activity,[2],Non-Toxic
same,EC50,cells [13],1.48 µM
C/C(=C\Cc1cc(O)cc(Sc2ccccc2C(=O)O)c1O)CCCC(C)CCCC(C)CCCC(C)C (configuration not stated),Activity,[1],Non-Toxic
same,EC50,cells [5],1.21 µM
same,EC50,cells [6],1.1 µM
same,Activity,HepG2 [14],Toxic
same,Activity,[2],Non-Toxic
same,IC50,Cholinesterase,12.8 µM
same,Imax,[11],94.3 to 95%
same,IC50,Acetylcholinesterase [3],13.8 µM
CC1=CCC[C@H]2[C@](C)(Cc3cc(O)cc(Sc4ccccc4C(=O)O)c3O)[C@@H](C)CC[C@]12C,Ki,Acetylcholinesterase [8],0.0585 nM
same,inhibition,[9],Active
same,IC50,Cholinesterase,15.1 µM
same,Imax,[11],77.5%
same,IC50,Acetylcholinesterase [3],15.1 µM
CC(C)=CCc1cc(O)cc(Sc2ccccc2C(=O)O)c1O,Activity,HepG2 [4],Non-Toxic
same,Activity,[1],Non-Toxic
same,EC50,cells [5],0.54 µM
same,EC50,cells [6],4.65 µM
same,Activity,[2],Non-Toxic
same,Ki,Acetylcholinesterase [8],0.221 nM
same,inhibition,[9],Active
same,Imax,[11],13.1%
same,IC50,Acetylcholinesterase [3],7.88 µM
CC(C)=CCC/C(C)=C/CC/C(C)=C/Cc1cc(O)cc(Sc2ccccc2C(=O)O)c1O,Activity,HepG2 [4],Non-Toxic
same,Activity,[1],Non-Toxic
same,EC50,cells [5],0.516 µM
same,EC50,cells [6],13.6 µM
same,Activity,[2],Non-Toxic
same,Imax,[11],8.4%
same,IC50,Acetylcholinesterase [3],18.1 µM
